Results: the NIST ThermoML archive (doi:10.1021/je200150r)
Numbers after ± are expanded uncertainties.

Legend:
[1] = 101 kPa, Liquid; for viscosity: Capillary tube (Ostwald / Ubbelohde) method; for mass density: Pycnometric method
[2] = xn = mol fraction of the nth substance listed; settings: 101 kPa, Liquid, x2 = 0; for viscosity: Capillary tube (Ostwald / Ubbelohde) method; for mass density: Pycnometric method

OCc1ccccc1 [benzenemethanol]
viscosity ([1]; 303.15 K): 4.689 ± 0.059 mPa·s | mass density ([1]; 303.15 K): 1037.6 ± 0.9 kg/m3 | viscosity ([1]; 308.15 K): 4.058 ± 0.051 mPa·s | mass density ([1]; 308.15 K): 1033.8 ± 0.9 kg/m3 | viscosity ([1]; 313.15 K): 3.531 ± 0.044 mPa·s | mass density ([1]; 313.15 K): 1030.1 ± 0.9 kg/m3 | viscosity ([1]; 318.15 K): 3.103 ± 0.039 mPa·s | mass density ([1]; 318.15 K): 1026.3 ± 0.9 kg/m3 | viscosity ([1]; 323.15 K): 2.747 ± 0.035 mPa·s | mass density ([1]; 323.15 K): 1022.5 ± 0.9 kg/m3

CCC(C)=O [butanone]
viscosity ([1]; 303.15 K): 0.362 ± 0.005 mPa·s | mass density ([1]; 303.15 K): 794 ± 0.9 kg/m3 | viscosity ([1]; 308.15 K): 0.345 ± 0.005 mPa·s | mass density ([1]; 308.15 K): 788.8 ± 0.9 kg/m3 | viscosity ([1]; 313.15 K): 0.33 ± 0.004 mPa·s | mass density ([1]; 313.15 K): 783.5 ± 0.9 kg/m3 | viscosity ([1]; 318.15 K): 0.316 ± 0.004 mPa·s | mass density ([1]; 318.15 K): 778.3 ± 0.9 kg/m3 | viscosity ([1]; 323.15 K): 0.303 ± 0.004 mPa·s | mass density ([1]; 323.15 K): 773 ± 0.9 kg/m3

CCC(C)=O [butanone] + OCc1ccccc1
viscosity ([2]; 303.15 K): 0.362 ± 0.005 mPa·s | mass density ([2]; 303.15 K): 794 ± 0.9 kg/m3 | viscosity ([2]; 308.15 K): 0.345 ± 0.005 mPa·s | mass density ([2]; 308.15 K): 788.8 ± 0.9 kg/m3 | viscosity ([2]; 313.15 K): 0.33 ± 0.004 mPa·s | mass density ([2]; 313.15 K): 783.5 ± 0.9 kg/m3 | viscosity ([2]; 318.15 K): 0.316 ± 0.004 mPa·s | mass density ([2]; 318.15 K): 778.3 ± 0.9 kg/m3 | viscosity ([2]; 323.15 K): 0.303 ± 0.004 mPa·s | mass density ([2]; 323.15 K): 773 ± 0.9 kg/m3
